Results from ChEMBL document CHEMBL4028802, “DILIrank: the largest reference drug list ranked by the risk for developing drug-induced liver injury in humans” (Drug Discov Today, 2016).

Experiments:
[1] = species: Homo sapiens; assay: Liver toxicity in human assessed as induction of drug-induced liver injury by measuring severity class index
[2] = species: Homo sapiens; assay: Liver toxicity in human assessed as induction of drug-induced liver injury by measuring verified drug-induced liver injury concern status
Throughout, for DILI severity class: key of the grades not given here.

SMILES	DILI_severity_class [1]	DILI_Concern [2]
CCn1cc(C(=O)O)c(=O)c2ccc(C)nc21 [NALIDIXIC ACID]	3	Ambiguous-Dili-Concern
C=C1CC[C@@]2(O)[C@H]3Cc4ccc(O)c5c4[C@@]2(CCN3CC2CC2)[C@H]1O5.Cl [NALMEFENE HYDROCHLORIDE]	3	Ambiguous-Dili-Concern
C=CCN1CC[C@]23c4c5ccc(O)c4O[C@H]2C(=O)CC[C@@]3(O)[C@H]1C5 [NALOXONE]	0	No-Dili-Concern
O=C1CC[C@@]2(O)[C@H]3Cc4ccc(O)c5c4[C@@]2(CCN3CC2CC2)[C@H]1O5 [NALTREXONE]	3	Ambiguous-Dili-Concern
CCCCCCCCCC(=O)O[C@H]1CC[C@H]2[C@@H]3CCC4=CC(=O)CC[C@@H]4[C@H]3CC[C@]12C [NANDROLONE DECANOATE]	7	Most-Dili-Concern
COc1ccc2cc([C@H](C)C(=O)O)ccc2c1 [NAPROXEN]	3	Less-Dili-Concern
CC(C)[C@H]1CC[C@H](C(=O)N[C@H](Cc2ccccc2)C(=O)O)CC1 [NATEGLINIDE]	3	Ambiguous-Dili-Concern
OC(CNCC(O)C1CCc2cc(F)ccc2O1)C1CCc2cc(F)ccc2O1 (configuration not stated) [NEBIVOLOL]	3	Ambiguous-Dili-Concern
CCc1nn(CCCN2CCN(c3cccc(Cl)c3)CC2)c(=O)n1CCOc1ccccc1 [NEFAZODONE]	8	Most-Dili-Concern
COc1nc(N)nc2c1ncn2[C@@H]1O[C@H](CO)[C@@H](O)[C@@H]1O [NELARABINE]	4	Less-Dili-Concern
Cc1ccnc2c1NC(=O)c1cccnc1N2C1CC1 [NEVIRAPINE]	8	Most-Dili-Concern
O=C(CCNNC(=O)c1ccncc1)NCc1ccccc1 [NIALAMIDE]	8	Most-Dili-Concern
COC(=O)C1=C(C)NC(C)=C(C(=O)OCCN(C)Cc2ccccc2)C1c1cccc([N+](=O)[O-])c1 (configuration not stated) [NICARDIPINE]	3	Ambiguous-Dili-Concern
COC(=O)C1=C(C)NC(C)=C(C(=O)OC)C1c1ccccc1[N+](=O)[O-] [NIFEDIPINE]	3	Less-Dili-Concern
Cc1cn(-c2cc(NC(=O)c3ccc(C)c(Nc4nccc(-c5cccnc5)n4)c3)cc(C(F)(F)F)c2)cn1 [NILOTINIB]	4	Ambiguous-Dili-Concern
CC1(C)NC(=O)N(c2ccc([N+](=O)[O-])c(C(F)(F)F)c2)C1=O [NILUTAMIDE]	8	Most-Dili-Concern
CS(=O)(=O)Nc1ccc([N+](=O)[O-])cc1Oc1ccccc1 [NIMESULIDE]	8	Most-Dili-Concern
COCCOC(=O)C1=C(C)NC(C)=C(C(=O)OC(C)C)C1c1cccc([N+](=O)[O-])c1 (configuration not stated) [NIMODIPINE]	3	Ambiguous-Dili-Concern
CN(C)Cc1ccc(CSCCN/C(=C\[N+](=O)[O-])NCc2ccc3c(c2)OCO3)o1 [NIPEROTIDINE]	8	Most-Dili-Concern
COC(=O)C1=C(C)NC(C)=C(C(=O)OCC(C)C)C1c1ccccc1[N+](=O)[O-] (configuration not stated) [NISOLDIPINE]	3	Ambiguous-Dili-Concern
CC(=O)Oc1ccccc1C(=O)Nc1ncc([N+](=O)[O-])s1 [NITAZOXANIDE]	0	No-Dili-Concern
O=C1CCCC(=O)C1C(=O)c1ccc(C(F)(F)F)cc1[N+](=O)[O-] [NITISINONE]	7	Ambiguous-Dili-Concern
Cc1nc([N+](=O)[O-])cn1-c1ccc([N+](=O)[O-])cc1 [NITREFAZOLE]	8	Most-Dili-Concern
O=C1CN(/N=C/c2ccc([N+](=O)[O-])o2)C(=O)N1 [NITROFURANTOIN]	8	Most-Dili-Concern
O=[N+]([O-])OCC(CO[N+](=O)[O-])O[N+](=O)[O-] [NITROGLYCERIN]	0	No-Dili-Concern
CNC(=C[N+](=O)[O-])NCCSCc1csc(CN(C)C)n1 [NIZATIDINE]	5	Less-Dili-Concern

SMILES	DILI_severity_class [1]	DILI_Concern [2]
CN1Cc2c(N)cccc2C(c2ccccc2)C1 (configuration not stated) [NOMIFENSINE]	8	Most-Dili-Concern
NC[C@H](O)c1ccc(O)c(O)c1 [NOREPINEPHRINE]	0	No-Dili-Concern
CCn1cc(C(=O)O)c(=O)c2cc(F)c(N3CCNCC3)cc21 [NORFLOXACIN]	3	Less-Dili-Concern
CNCCC=C1c2ccccc2CCc2ccccc21 [NORTRIPTYLINE]	8	Most-Dili-Concern
C[C@@H](O)[C@@H]1NC(=O)[C@H](CCCCN)NC(=O)[C@@H](Cc2c[nH]c3ccccc23)NC(=O)[C@H](Cc2ccccc2)NC(=O)[C@@H](NC(=O)[C@H](N)Cc2ccccc2)CSSC[C@@H](C(=O)N[C@H](CO)[C@@H](C)O)NC1=O [OCTREOTIDE]	2	Less-Dili-Concern
CC1COc2c(N3CCN(C)CC3)c(F)cc3c(=O)c(C(=O)O)cn1c23 (configuration not stated) [OFLOXACIN]	3	Less-Dili-Concern
Cc1cc2c(s1)Nc1ccccc1N=C2N1CCN(C)CC1 [OLANZAPINE]	3	Less-Dili-Concern
CCCc1nc(C(C)(C)O)c(C(=O)OCc2oc(=O)oc2C)n1Cc1ccc(-c2ccccc2-c2nnn[nH]2)cc1 [OLMESARTAN MEDOXOMIL]	4	Ambiguous-Dili-Concern
O=C(O)c1cc(/N=N/c2ccc(O)c(C(=O)O)c2)ccc1O [OLSALAZINE]	8	Less-Dili-Concern
COc1ccc2[nH]c([S+]([O-])Cc3ncc(C)c(OC)c3C)nc2c1 (configuration not stated) [OMEPRAZOLE]	4	Less-Dili-Concern
Cc1nccn1CC1CCc2c(c3ccccc3n2C)C1=O (configuration not stated) [ONDANSETRON]	7	Less-Dili-Concern
CCCCCCCCCCC[C@@H](C[C@@H]1OC(=O)[C@H]1CCCCCC)OC(=O)[C@H](CC(C)C)NC=O [ORLISTAT]	8	Most-Dili-Concern
Cc1ccccc1C(OCCN(C)C)c1ccccc1 (configuration not stated) [ORPHENADRINE]	0	No-Dili-Concern
CCOC(=O)C1=C[C@@H](OC(CC)CC)[C@H](NC(C)=O)[C@@H](N)C1 [OSELTAMIVIR]	3	Ambiguous-Dili-Concern
Cc1onc(-c2ccccc2)c1C(=O)N[C@@H]1C(=O)N2[C@@H]1SC(C)(C)[C@@H]2C(=O)O [OXACILLIN]	3	Less-Dili-Concern
C[C@]12COC(=O)C[C@@H]1CC[C@@H]1[C@@H]2CC[C@@]2(C)[C@H]1CC[C@]2(C)O [OXANDROLONE]	8	Most-Dili-Concern
O=C(O)CCc1nc(-c2ccccc2)c(-c2ccccc2)o1 [OXAPROZIN]	3	Less-Dili-Concern
O=C1Nc2ccc(Cl)cc2C(c2ccccc2)=NC1O (configuration not stated) [OXAZEPAM]	5	Ambiguous-Dili-Concern
NC(=O)N1c2ccccc2CC(=O)c2ccccc21 [OXCARBAZEPINE]	3	Less-Dili-Concern
O=C(O)CCCO [OXYBATE]	0	No-Dili-Concern
CCN(CC)CC#CCOC(=O)C(O)(c1ccccc1)C1CCCCC1 (configuration not stated) [OXYBUTYNIN]	0	No-Dili-Concern
COc1ccc2c3c1O[C@H]1C(=O)CC[C@@]4(O)[C@@H](C2)N(C)CC[C@]314 [OXYCODONE]	0	No-Dili-Concern
C[C@]12C/C(=C/O)C(=O)C[C@@H]1CC[C@@H]1[C@@H]2CC[C@@]2(C)[C@H]1CC[C@]2(C)O [OXYMETHOLONE]	7	Most-Dili-Concern
CN1CC[C@]23c4c5ccc(O)c4O[C@H]2C(=O)CC[C@@]3(O)[C@H]1C5 [OXYMORPHONE]	0	No-Dili-Concern
O=C1Nc2ccccc2C1(c1ccc(O)cc1)c1ccc(O)cc1 [OXYPHENISATINE]	8	Most-Dili-Concern
